Assay results as given in paper PMC9036655 (RSC Advances, 2021).
In brackets after ≈: the same amount, converted by molar mass.

Tests used:
[1] = system: A549 cells; assay: Cytotoxicity, MTT assay, A549 cells; type: cell-based, Human; conditions: for IC50: Homo sapiens, A549, 72 h, read-out: IC50 A549; for Selectivity index A549: IC50(A549)/MIC M. tb.
[2] = system: Vero cells; assay: Cytotoxicity, MTT assay, Vero cells; type: cell-based, African green monkey; conditions: IC50(Vero)/MIC M. tb.
[3] = system: M. tuberculosis H37Rv; assay: Antimycobacterial activity against M. tuberculosis H37Rv; type: cell-based, Mycobacterium tuberculosis; conditions: for inhibition at 20 µg/mL: read-out: % inhibition 20 μg mL^−1, M. tuberculosis H37Rv; for inhibition at 20 µg/mL / % inhibition 20 μg mL^−1: 20 μg mL^−1; for % inhibition 20 μg mL^−1: M. tuberculosis H37Rv
[4] = system: Escherichia coli Esbls^−16-23; assay: Antibacterial spectrum test, agar double dilution MIC; type: cell-based
[5] = system: Escherichia coli Esbls^−16-24; assay: as above; type: cell-based
[6] = system: Klebsiella pneumoniae Esbls^−17-11; assay: as above; type: cell-based
[7] = system: Klebsiella pneumoniae Esbls^−17-12; assay: as above; type: cell-based
[8] = system: Pseudomonas aeruginosa 17-2; assay: as above; type: cell-based; conditions: 172
[9] = system: Escherichia coli ATCC25922; assay: as above; type: cell-based
[10] = Mycobacterium tuberculosis, H37RV

Compound | IC50 [1] [µg/mL] | Selectivity index A549 [1] | Selectivity index Vero [2] | inhibition at 20 µg/mL [3, 10] [%] | also measured
COc1cc(OC)cc(-c2ccc(C(=O)NCc3c4c(c(C)[nH]c3=O)CCCC4)cc2)c1 [6b6, 3′,5′-Dimethoxy-N-((1-methyl-3-oxo-2,3,5,6,7,8-hexahydroisoquinolin-4-yl)methyl)-[1,1′-biphenyl]-4-carboxamide] | > 100 | >33 | >16 |  | 
Cc1[nH]c(=O)c(CNC(=O)c2ccc(F)nc2)c2c1CCCC2 [6b26, 6-Fluoro-N-((1-methyl-3-oxo-2,3,5,6,7,8-hexahydroisoquinolin-4-yl)methyl)nicotinamide] | > 100 | >63 | >31 | 94.1 | 
Cc1[nH]c(=O)c(CNC(=O)c2ccc([N+](=O)[O-])o2)c2c1CCCC2 [6b29, N-((1-Methyl-3-oxo-2,3,5,6,7,8-hexahydroisoquinolin-4-yl)methyl)-5-nitrofuran-2-carboxamide] | > 100 | >35 | >17 | 100 | 
Cc1[nH]c(=O)c(CNC(=O)c2ccc(C(F)(F)F)o2)c2c1CCCC2 [6b33, N-((1-Methyl-3-oxo-2,3,5,6,7,8-hexahydroisoquinolin-4-yl)methyl)-5-(trifluoromethyl)furan-2-carboxamide] | > 100 | >50 | >25 | 98.3 | 
Cc1[nH]c(=O)c(C(=O)Nc2ccc(C(F)(F)F)cc2)c2c1CCCC2 [10a4, 1-Methyl-3-oxo-N-(4-(trifluoromethyl)phenyl)-2,3,5,6,7,8-hexahydroisoquinoline-4-carboxamide] |  |  |  | 36.8 | 
Cc1[nH]c(=O)c(CNC(=O)Cc2ccc(C(F)(F)F)cc2)c2c1CCCC2 [10a5, N-((1-Methyl-3-oxo-2,3,5,6,7,8-hexahydroisoquinolin-4-yl)methyl)-2-(4-(trifluoromethyl)phenyl)acetamide] |  |  |  | 99.3 | 
NNC(=O)c1ccncc1 [Isoniazid, reference compound] |  |  |  | 98.9 | % inhibition 20 μg mL^−1 [3]: 99.4%; inhibition at 50 µg/mL ([3]; Mycobacterium tuberculosis, H37RV, read-out: % inhibition 50 μg mL^−1, M. tuberculosis H37Rv, 50 μg mL^−1): 98.9%
C[C@H]1COc2c(N3CCN(C)CC3)c(F)cc3c(=O)c(C(=O)O)cn1c23 [Levofloxacin tablets, Levofloxacin] |  |  |  |  | MIC [4]: 16 µg/mL (≈ 44.3 µM); MIC [5]: < 0.008 µg/mL; MIC [6]: 0.03 µg/mL (≈ 0.083 µM); MIC [7]: < 0.008 µg/mL; MIC [8]: 16 µg/mL (≈ 44.3 µM); MIC [9]: < 0.008 µg/mL
N-((6-Ethyl-4-methyl-2-oxo-1,2-dihydropyridin-3-yl)methyl)-5-nitrofuran-2-carboxamide [8a2] |  |  |  |  | % inhibition 20 μg mL^−1 [3]: 98.2%
